Laboratory results reported in patent US12503484B2, “Androstane derivatives with activity as pure or predominantly pure stimulators of SERCA2a for the treatment of heart failure” (Seismic Pharmaceuticals, priority 2019, dated 2025).
Where a name gives a salt, the structure may show the parent alone. Read-outs that look alike come from different tables or passages of the source.

Columns and labels:
in vivo = assay: in vivo; set-up: dose or concentration left out as unconfirmed; conditions: rat
STZ diabetic rats = assay: Haemodynamics in streptozotocin diabetic rats (echocardiography); format: in vivo, rat; conditions: for diastolic function (in words) / overall cardiac function, SV and CO (in words): IV infusion
Procedure: CVie214 and CVie216 were tested in a diabetic rat model. Briefly, rats were injected with streptozotocin (STZ). After 7-9 weeks from STZ injection, rats were submitted to transthoracic echocardiographic and Doppler evaluation performed under urethane anesthesia. Two-dimensionally guided M-mode recordings were used to obtain short-axis measurements of left ventricular end-diastolic diameter (LVEDD), left ventricular end-systolic diameter (LVESD), posterior (PW) and septal (SW) diastolic wall thickness according to the American Society of Echocardiography guidelines (Lang R M et al., Eur J Echocardiography 2006, 7:79-108). Fractional shortening was calculated as FS=(LVEDD−LVESD)/LVEDD. Relative wall thickness was calculated as PWTd+IVSTd/LVEDD. Mitral inflow was measured by pulsed Doppler at the tips of mitral leaflets from an apical 4-chamber view to obtain early and late filling velocities (E, A) and deceleration time of early filling velocity (DT). The deceleration slope was calculated as E/DT ratio. The mitral deceleration index was calculated as DT/E ratio. Tissue Doppler Imaging (TDI) was evaluated from the apical 4-chamber view to record septal mitral annular movements, i.e., peak myocardial systolic (s′) and early and late diastolic velocity (e′ and a′).
After baseline hemodynamic measurements were taken, the rats were administered Digoxin, CVie214, CVie216 and compared to control. Digoxin, used as reference drug, was intravenously infused at 0.11 mg/kg/min for 15 min and echocardiographic parameters measured after 1 h. CVie214-salt and CVie216-salt were intravenously infused in STZ diabetic rats at 0.2 mg/kg/min and echocardiographic parameters were measured after 15 min and 30 min.
Tables 4-6 show the haemodynamic parameters in STZ diabetic rats for Digoxin, CVie214-salt, and Cvie216-salt.

[1] = Acute toxicity in the mouse; conditions: Albino Swiss CD-1, in vivo
Procedure: The acute toxicity of the tested compound CVie214-salt and CVie216-salt have been determined in the mouse (Albino Swiss CD-1, body weight 30 g). Compounds have been orally administered or intravenously injected at increasing doses to identify the dose causing 50% mortality. Mortality occurred within 30 min after the administration and survival after 24 h.
As comparison, the acute toxicity for the reference compounds Digoxin and Istaroxime were also included. Digoxin refers to literature data (www.lookchem.com, Reference for Digoxin intravenous: Afifi A M, Ammar E M. Pharmacological Research Communications. Vol. 6, Pg. 417, 1974; Reference for Digoxin oral: Archives Internationales de Pharmacodynamie et de Therapie. Vol. 153, Pg. 436, 1965) (Table 3).

SERCA2a = SERCA2a (Cavia porcellus, UniProt A0A286XD73); conditions: literature; cited from earlier work
[2] = system: mouse (Albino Swiss CD-1); conditions: data from literature, cited from earlier work
[3] = system: rat ventricular myocytes isolated from STZ rats; conditions: literature; cited from earlier work
[4] = molecular target: dog renal Na^+/K^+ ATPase (Canis lupus familiaris (Dog) (Canis familiaris), UniProt P50997); conditions: read-out: IC50 inhibition of dog renal Na+/K+ ATPase; purified dog kidney enzyme;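 also: enzyme preincubated with inhibitor 10 min at 37 °C, then K^+ and ^32P-ATP added for 15 min, released ^32P counted, activity relative to untreated control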
Source text: Inhibition of Dog Renal Na^+/K^+ ATPase Activity
The compounds were thus tested for their inhibitory effect on the canine renal Na^+/K^+ ATPase enzyme.
Kidneys were excised from 1-3 year-old male beagle dogs (WuXi AppTec, Suzhou Co., Ltd. 1318 Wuzhong Ave., Wuzhong District Suzhou, 215104 P.R. China) under pentobarbital anesthesia (Import Authorization from Italian Health Ministry 0009171-09/04/2015-DGSAF-COD_UO-P, 2015). Kidneys were sliced and the outer medulla was dissected and suspended (1 g/10 ml) in a sucrose-histidine solution containing 250 mM sucrose, 30 mM histidine, and 5 mM EDTA, pH 7.2. The tissue was homogenized by using an Ultra Turrax homogenizer. The sample was centrifuged at 6,000 g for 15 min. Next, the supernatant was decanted and centrifuged at 48,000 g for 30 min. The pellet was suspended in the sucrose-histidine buffer and incubated for 20 min with a sodium-dodecyl-sulphate (SDS) solution dissolved in a gradient buffer containing 25 mM imidazole and 1 mM EDTA, pH 7.5. The sample was layered on the top of a sucrose discontinuous gradient (10, 15, and 29.4%) and centrifuged at 60,000 g for 115 min. The pellet was suspended in the gradient buffer.
Increasing concentrations of the standard ouabain, or tested compound, were incubated with 0.3 μg of purified dog kidney enzyme for 10 min at 37° C. in 120 μl final volume of a medium containing 140 mM NaCl, 3 mM MgCl2, 50 mM Hepes-Tris, 3 mM ATP, pH 7.5. Then, 10 μl of a solution containing 10 mM KCl and 20 nCi of ^32P-ATP (3-10 Ci/mmol, Perkin Elmer) were added. The reaction was allowed to continue for 15 min at 37° C. and then stopped by acidification with 20% v/v ice-cold perchloric acid. ^32P was separated by centrifugation with activated Charcoal (Norit A, Serva) and the radioactivity was counted. The inhibitory activity was expressed as percent of the control samples carried out in the absence of ouabain, or tested compound.

[5] = after 15 min IV infusion 0.2 mg/kg/min
[6] = after 30 min IV infusion 0.2 mg/kg/min
[7] = after 15 min Digoxin IV infusion 0.11 mg/kg/min

Chain of SERCA2a (A0A286XD73 1-997): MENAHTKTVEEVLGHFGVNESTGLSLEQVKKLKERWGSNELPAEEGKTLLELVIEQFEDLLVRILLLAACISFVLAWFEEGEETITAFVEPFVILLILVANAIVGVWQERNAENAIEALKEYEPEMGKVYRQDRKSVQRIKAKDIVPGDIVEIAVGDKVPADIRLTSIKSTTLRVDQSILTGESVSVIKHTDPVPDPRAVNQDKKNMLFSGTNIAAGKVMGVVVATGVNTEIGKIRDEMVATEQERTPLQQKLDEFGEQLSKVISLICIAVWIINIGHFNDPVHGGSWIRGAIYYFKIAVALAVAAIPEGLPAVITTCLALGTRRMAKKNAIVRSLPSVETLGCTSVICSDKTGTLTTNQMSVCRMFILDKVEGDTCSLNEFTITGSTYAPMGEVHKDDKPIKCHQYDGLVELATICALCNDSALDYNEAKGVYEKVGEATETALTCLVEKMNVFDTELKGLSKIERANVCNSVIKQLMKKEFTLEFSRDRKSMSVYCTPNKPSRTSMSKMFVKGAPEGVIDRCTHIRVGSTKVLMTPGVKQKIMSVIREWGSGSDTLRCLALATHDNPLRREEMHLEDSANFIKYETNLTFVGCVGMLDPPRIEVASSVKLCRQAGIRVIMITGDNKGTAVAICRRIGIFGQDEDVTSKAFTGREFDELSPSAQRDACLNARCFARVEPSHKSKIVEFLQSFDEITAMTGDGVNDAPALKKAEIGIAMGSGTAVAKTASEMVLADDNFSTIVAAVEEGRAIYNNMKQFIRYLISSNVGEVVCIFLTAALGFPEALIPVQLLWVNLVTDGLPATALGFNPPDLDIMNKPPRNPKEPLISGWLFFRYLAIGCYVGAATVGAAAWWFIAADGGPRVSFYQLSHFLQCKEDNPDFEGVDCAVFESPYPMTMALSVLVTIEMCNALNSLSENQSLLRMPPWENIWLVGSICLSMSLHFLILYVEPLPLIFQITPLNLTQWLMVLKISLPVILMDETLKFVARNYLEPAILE

C[C@]12CC[C@H](CCCC(=O)O)CC1[C@@H](O)CC1C2CC[C@]2(C)C(=O)CCC12 (stereo partly drawn) [CVie214-salt, 4-(6alpha-hydroxy-17-oxoandrostane-3-yl) butyric acid]
bioavailability (in vivo): 41.5%
diastolic function (in words) (STZ diabetic rats): ameliorated diastolic function
overall cardiac function, SV and CO (in words) (STZ diabetic rats): improvement
A late filling velocity of mitral inflow (STZ diabetic rats; [5]): 0.65 ± 0.13 m/s
CO cardiac output (STZ diabetic rats; [5]): 177.23 ± 40.64 mL/min
DT deceleration time of E wave (STZ diabetic rats; [5]): 42.5 ± 10.19 ms
DT/E mitral deceleration index (STZ diabetic rats; [5]): 49.52 ± 12.41 s2/m
E early filling velocity of mitral inflow (STZ diabetic rats; [5]): 0.88 ± 0.15 m/s
E/A index of LV function (STZ diabetic rats; [5]): 1.36 ± 0.17
E/DT deceleration slope (STZ diabetic rats; [5]): 21.49 ± 5.8 m/s2
E/e′ index of LV filling pressure (STZ diabetic rats; [5]): 37.49 ± 4.34
FS fractional shortening (STZ diabetic rats; [5]): 58.1 ± 8.59%
HR heart rate (STZ diabetic rats; [5]): 268 ± 54 beat/min
SV stroke volume (STZ diabetic rats; [5]): 0.68 ± 0.19 ml/beat
a′ TDI late relaxation velocity (STZ diabetic rats; [5]): 29.13 ± 6.56 cm/s
e′ TDI early relaxation velocity (STZ diabetic rats; [5]): 23.33 ± 2.62 cm/s
s′ TDI contraction velocity (STZ diabetic rats; [5]): 22.45 ± 3.12 cm/s
A late filling velocity of mitral inflow (STZ diabetic rats; [6]): 0.69 ± 0.11 m/s
CO cardiac output (STZ diabetic rats; [6]): 175.15 ± 33.96 mL/min
DT deceleration time of E wave (STZ diabetic rats; [6]): 42.15 ± 9.88 ms
DT/E mitral deceleration index (STZ diabetic rats; [6]): 48.51 ± 16.44 s2/m
E early filling velocity of mitral inflow (STZ diabetic rats; [6]): 0.91 ± 0.16 m/s
E/A index of LV function (STZ diabetic rats; [6]): 1.34 ± 0.21
E/DT deceleration slope (STZ diabetic rats; [6]): 23.18 ± 8.37 m/s2
E/e′ index of LV filling pressure (STZ diabetic rats; [6]): 37.47 ± 4.48
FS fractional shortening (STZ diabetic rats; [6]): 60.69 ± 8.36%
HR heart rate (STZ diabetic rats; [6]): 252 ± 49 beat/min
SV stroke volume (STZ diabetic rats; [6]): 0.71 ± 0.16 ml/beat
a′ TDI late relaxation velocity (STZ diabetic rats; [6]): 28.94 ± 5.32 cm/s
e′ TDI early relaxation velocity (STZ diabetic rats; [6]): 24.24 ± 2.34 cm/s
s′ TDI contraction velocity (STZ diabetic rats; [6]): 21.82 ± 2.81 cm/s
LD50 at 24 h ([1]; iv): 300 mg/kg
LD50 at 24 h ([1]; oral, os): > 800 mg/kg

C[C@H]1O[C@@H](O[C@H]2[C@@H](O)C[C@H](O[C@H]3[C@@H](O)C[C@H](O[C@H]4CC[C@@]5(C)[C@H](CC[C@@H]6[C@@H]5C[C@@H](O)[C@]5(C)[C@@H](C7=CC(=O)OC7)CC[C@]65O)C4)O[C@@H]3C)O[C@@H]2C)C[C@H](O)[C@@H]1O [Digoxin, reference compound]
stimulation of SERCA2a activity (in words) (SERCA2a): failed to stimulate
LD50 ([2]; iv): 7.7 mg/kg
LD50 ([2]; os): 17.8 mg/kg
diastolic function (in words) (STZ diabetic rats): ameliorated diastolic function
overall cardiac function, SV and CO (in words) (STZ diabetic rats): did not affect
A late filling velocity of mitral inflow (STZ diabetic rats; [7]): 0.79 ± 0.19 m/s
CO cardiac output (STZ diabetic rats; [7]): 155.6 ± 45.7 mL/min
DT deceleration time of E wave (STZ diabetic rats; [7]): 44.1 ± 10.29 ms
DT/E mitral deceleration index (STZ diabetic rats; [7]): 50.18 ± 17.05 s2/m
E early filling velocity of mitral inflow (STZ diabetic rats; [7]): 0.92 ± 0.19 m/s
E/A index of LV function (STZ diabetic rats; [7]): 1.20 ± 0.21
E/DT deceleration slope (STZ diabetic rats; [7]): 22.66 ± 9.56 m/s2
E/e′ index of LV filling pressure (STZ diabetic rats; [7]): 38.95 ± 7.31
FS fractional shortening (STZ diabetic rats; [7]): 53.1 ± 5.6*6%
HR heart rate (STZ diabetic rats; [7]): 257 ± 36 beat/min
SV stroke volume (STZ diabetic rats; [7]): 0.6 ± 0.12 ml/beat
a′ TDI late relaxation velocity (STZ diabetic rats; [7]): 29.78 ± 6.17 cm/s
e′ TDI early relaxation velocity (STZ diabetic rats; [7]): 23.82 ± 2.87 cm/s
s′ TDI contraction velocity (STZ diabetic rats; [7]): 26.03 ± 4.66 cm/s
effect detected by the SR loading protocol [3]: did not detect any effect
IC50 [4]: 180 nM
